Oligonucleotides are written 5' to 3', each unit as a sugar letter and its base; * is a phosphorothioate linkage, no mark a phosphodiester; rarer units and linkages stand in square brackets, end groups in braces. Plain capitals give the bases only. e = 2'-O-(2-methoxyethyl) (MOE); [5mC] = 5-methylcytosine; d = 2'-deoxy (DNA)
What was measured:
[1] = test system: murine TTC39A mRNA; assay: Antisense inhibition of mouse TTC39A in b.END cells, single dose; assay type: cell-based; conditions: 70 nM, cytofectin, ~24 h, vs untreated control
Method: Antisense oligonucleotides were designed targeting a TTC39A nucleic acid and were tested for their effects on TTC39A mRNA in vitro. Cultured b.END cells at a density of 4,000 cells per well were transfected using cytofectin reagent with 70 nM antisense oligonucleotide. After a treatment period of approximately 24 hours, RNA was isolated from the cells and TTC39A mRNA levels were measured by quantitative real-time PCR. Mouse primer probe set RTS3262 (forward sequence TGTGCGTCATGCTGTTGCT, designated herein as SEQ ID NO: 113; reverse sequence […], designated herein as SEQ ID NO: 114; probe sequence […], designated herein as SEQ ID NO: 115). TTC39A mRNA levels were adjusted according to total RNA content, as measured by RIBOGREEN®. Results are presented as percent inhibition of TTC39A, relative to untreated control cells.
The chimeric antisense oligonucleotides targeting TTC39A were designed as 5-10-5 MOE gapmers. The gapmers are 20 nucleotides in length, wherein the central gap segment is comprised of ten 2′-deoxynucleotides and is flanked on both sides (in the 5′ and 3′ directions) by wings comprising five nucleotides each. Each nucleotide in the 5′ wing segment and each nucleotide in the 3′ wing segment has a 2′-MOE modification. The internucleoside linkages throughout each gapmer are phosphorothioate (P═S) linkages. All cytosine residues throughout each gapmer are 5-methylcytosines. “Mouse Target start site” indicates the 5′-most nucleotide to which the gapmer is targeted in a mouse nucleic acid sequence.

[2] = test system: murine TTC39A mRNA; assay: Dose-dependent antisense inhibition of murine TTC39A in b.END cells; assay type: cell-based, mouse; conditions: ~16 h; for IC50: cytofectin
Method: Cells were plated at a density of 3,500 cells per well and transfected using cytofectin reagent with 4.375 nM, 8.75 nM, 17.5 nM, 35 nM, 70 nM, and 140 nM concentrations of antisense oligonucleotide, as specified in Table 28. After a treatment period of approximately 16 hours, RNA was isolated from the cells and TTC39A mRNA levels were measured by quantitative real-time PCR. Murine primer probe set RTS3262 was used to measure mRNA levels. TTC39A mRNA levels were adjusted according to total RNA content, as measured by RIBOGREEN®. Results are presented as percent inhibition of TTC39A, relative to untreated control cells.

[3] = Plasma cholesterol and triglycerides in LDLr-/- mice; assay type: in vivo, mouse; conditions: 50 mg/kg/week
Method: The LDLr knockout mice model is a model for familial hypercholesterolemia developed by Ishibashi et al (J Clin Invest 1993; 92: 883-893). On a normal chow diet, the mice have an average total cholesterol of 250 mg/dL due to increases in LDL and VLDL cholesterol. This model is therefore highly susceptible to atherosclerosis (Ishibashi et al Proc Natl Acad Sci USA 1994; 91: 4431-4435).
(§1) Four groups of five male mice each were injected with a total of 1.5, 5, 15, or 50 mg/kg/week of ISIS 447118 for 6 weeks. A group of five mice was injected with a total of 50 mg/kg/week of control oligonucleotide ISIS 141923 ([…], designated herein as SEQ ID NO: 112, which has no known murine target) for 6 weeks. A control group of five mice was injected with phosphate buffered saline (PBS) twice a week for 6 weeks. Plasma samples were obtained before the start of treatment, at week 3 and at week 6. At the end of the treatment period, the mice were euthanized. Plasma and tissue samples were obtained for further analysis.
To investigate the effect of inhibition of TTC39B on triglycerides and cholesterol levels in the plasma, samples were collected on weeks 0, 3, and 6, and total plasma cholesterol, LDL cholesterol, HDL cholesterol, and triglycerides were analyzed on an Olympus AU400e Analyzer.

[4] = test system: Apolipoprotein A-IV (ApoA4) mRNA; assay: PCR microarray analysis of liver, LDLr-/- mice: ApoA4; assay type: in vivo, mouse; conditions: 50 mg/kg, 6 weeks
Method: as §1
(§2) Liver samples from the mice groups were analyzed using a commercial kit for PCR microarray analysis (SA Biosciences Corp., MD), according to the manufacturer's instructions. Genes involved in lipoprotein and cholesterol metabolism were compared with the PBS control.

[5] = test system: Low density lipoprotein receptor (Ldlr) mRNA; assay: PCR microarray analysis of liver, LDLr-/- mice: Ldlr; assay type: in vivo, mouse; conditions: 50 mg/kg, 6 weeks
Method: as §1, §2

[6] = test system: Oxysterol binding protein-like 5 (Osbpl5) mRNA; assay: PCR microarray analysis of liver, LDLr-/- mice: Osbpl5; assay type: in vivo, mouse; conditions: 50 mg/kg, 6 weeks
Method: as §1, §2

[7] = test system: Sterol O-acyltransferase 2 (Soat2) mRNA; assay: PCR microarray analysis of liver, LDLr-/- mice: Soat2; assay type: in vivo, mouse; conditions: 50 mg/kg, 6 weeks
Method: as §1, §2

[8] = test system: Stabilin 1 (Stab1) mRNA; assay: PCR microarray analysis of liver, LDLr-/- mice: Stab1; assay type: in vivo, mouse; conditions: 50 mg/kg, 6 weeks
Method: as §1, §2

[9] = test system: Farnesyl diphosphate synthetase (Fdps) mRNA; assay: PCR microarray analysis of liver, LDLr-/- mice: Fdps; assay type: in vivo, mouse; conditions: 50 mg/kg, 6 weeks
Method: as §1, §2

[10] = test system: Insulin induced gene 1 (Insig1) mRNA; assay: PCR microarray analysis of liver, LDLr-/- mice: Insig1; assay type: in vivo, mouse; conditions: 50 mg/kg, 6 weeks
Method: as §1, §2

[11] = test system: Mevalonate (diphospho) decarboxylase (Mvd) mRNA; assay: PCR microarray analysis of liver, LDLr-/- mice: Mvd; assay type: in vivo, mouse; conditions: 50 mg/kg, 6 weeks
Method: as §1, §2

[12] = test system: Proprotein convertase subtilisin/kexin type 9 (Pcsk9) mRNA; assay: PCR microarray analysis of liver, LDLr-/- mice: Pcsk9; assay type: in vivo, mouse; conditions: 50 mg/kg, 6 weeks
Method: as §1, §2

CGCCTGGACTTCCGGATAGC (e[5mC]*eG*e[5mC]*e[5mC]*eT*dG*dG*dA*d[5mC]*dT*dT*d[5mC]*d[5mC]*dG*dG*eA*eT*eA*eG*e[5mC]; antisense) [ISIS 474369]
% inhibition of murine TTC39A mRNA [1]: 96%
percent inhibition of TTC39A mRNA ([2]; 4.375 nM): 0%
percent inhibition of TTC39A mRNA ([2]; 8.75 nM): 14%
percent inhibition of TTC39A mRNA ([2]; 17.5 nM): 22%
percent inhibition of TTC39A mRNA ([2]; 35.0 nM): 48%
percent inhibition of TTC39A mRNA ([2]; 70.0 nM): 62%
percent inhibition of TTC39A mRNA ([2]; 140.0 nM): 82%
IC50 [2]: 44 nM

CCTTCCCTGAAGGTTCCTCC (chemistry not given here) [ISIS 141923, reference compound]
HDL cholesterol % increase on week 6 (% change over baseline) [3]: 43%
HDL cholesterol levels ([3]; Week 0 (before treatment)): 76 mg/dL
LDL cholesterol levels ([3]; Week 0 (before treatment)): 100 mg/dL
total cholesterol levels ([3]; Week 0 (before treatment)): 206 mg/dL
triglyceride levels ([3]; Week 0 (before treatment)): 97 mg/dL
HDL cholesterol levels ([3]; Week 3): 78 mg/dL
LDL cholesterol levels ([3]; Week 3): 100 mg/dL
total cholesterol levels ([3]; Week 3): 204 mg/dL
triglyceride levels ([3]; Week 3): 116 mg/dL
HDL cholesterol levels ([3]; Week 6): 108 mg/dL
LDL cholesterol levels ([3]; Week 6): 112 mg/dL
total cholesterol levels ([3]; Week 6): 227 mg/dL
triglyceride levels ([3]; Week 6): 143 mg/dL
ApoA4 fold increase/decrease relative to PBS group [4]: 0.87 fold
Ldlr fold increase/decrease relative to PBS group [5]: 1.36 fold
Osbpl5 fold increase/decrease relative to PBS group [6]: 1.21 fold
Soat2 fold increase/decrease relative to PBS group [7]: 0.95 fold
Stab1 fold increase/decrease relative to PBS group [8]: 1.12 fold
Fdps fold increase/decrease relative to PBS group [9]: 1.21 fold
Insig1 fold increase/decrease relative to PBS group [10]: 1.13 fold
Mvd fold increase/decrease relative to PBS group [11]: 1.25 fold
Pcsk9 fold increase/decrease relative to PBS group [12]: 1.09 fold

CACCTGGGTTTGAGGTAGCT (e[5mC]*eA*e[5mC]*e[5mC]*eT*dG*dG*dG*dT*dT*dT*dG*dA*dG*dG*eT*eA*eG*e[5mC]*eT; antisense) [ISIS 474498]
% inhibition of murine TTC39A mRNA [1]: 95%
percent inhibition of TTC39A mRNA ([2]; 4.375 nM): 0%
percent inhibition of TTC39A mRNA ([2]; 8.75 nM): 6%
percent inhibition of TTC39A mRNA ([2]; 17.5 nM): 33%
percent inhibition of TTC39A mRNA ([2]; 35.0 nM): 55%
percent inhibition of TTC39A mRNA ([2]; 70.0 nM): 64%
percent inhibition of TTC39A mRNA ([2]; 140.0 nM): 80%
IC50 [2]: 35 nM

Source: patent US20120270929A1, “MODULATION OF TTC39 EXPRESSION TO INCREASE HDL” (ISIS Pharmaceuticals, Inc., priority 2009, published 2012)
